Reference: patent US12521342B2, “Fast disintegrating tablet” (CUBOPHARM PTY LTD, priority 2017, dated 2026)
Like-named read-outs stand apart in the source and are kept apart here.

Columns and labels:
[1] = cited from earlier work
[2] = pig, pH 7.4

Total rosuvastatin absorbed per minute ([2]; 0.4 mg/1.5 ml) | Total rosuvastatin absorbed per minute ([2]; 0.8 mg/1.5 ml) | Structure (SMILES) | logP [1]
– | – | CNCC(O)c1ccc(O)c(O)c1 (stereo not drawn) [Adrenaline] | −0.5 to −1.2
0.6 ng/mL | 0.3 ng/mL | CC(C)c1nc(N(C)S(C)(=O)=O)nc(-c2ccc(F)cc2)c1/C=C/[C@@H](O)C[C@@H](O)CC(=O)O [Rosuvastatin] | –
